Data as given in PubChem BioAssay AID1347 (Sanford-Burnham Center for Chemical Genomics, 2008).
Active and inactive are the calls of the source.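 Rule for the calls: active = survival repeatably raised 25 points above the stressor-only control level of 35%, about 60% survival; inactive = the rest.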

Tested on: differentiated CSM14.1, thapsigargin death rescue, ATPlite, 24 h
Test: ER stress death protection in CSM14.1 neurons – cell-based, differentiated CSM14.1, ATP luminescence, SAR follow-up (AID 1347)
Settings: at 25 µM; hits give high values

SMILES | survival
CCCOc1ccc(C2Nc3ccccc3NC3=C2C(=O)CC(c2ccc(OC)c(OC)c2)C3)cc1 (stereo unspecified) | 68%
COc1ccc(C2CC(=O)C3=C(C2)Nc2ccccc2NC3c2ccccc2C(F)(F)F)cc1OC (stereo unspecified) | 68%
COc1ccc(C2CC(=O)C3=C(C2)Nc2ccccc2NC3c2cc(C)ccc2C)cc1 (stereo unspecified) | 69%
CC1(C)CC(=O)C2=C(C1)Nc1ccccc1NC2c1ccc(-c2ccccc2)cc1 (stereo unspecified) | 47%
CCOc1cc(C2Nc3ccccc3NC3=C2C(=O)CC(c2ccc(OC)cc2)C3)cc(Cl)c1O (stereo unspecified) | 20% (inactive)
O=C1CC(c2ccccc2)CC2=C1C(c1c(F)cccc1Cl)Nc1ccccc1N2 (stereo unspecified) | 10% (inactive)
COc1ccc(C2CC(=O)C3=C(C2)Nc2ccccc2NC3c2cccc(Oc3ccccc3)c2)cc1OC (stereo unspecified) | 66%
COc1ccc(C2CC(=O)C3=C(C2)Nc2ccccc2NC3c2cccc(Br)c2)cc1OC (stereo unspecified) | 63%
CCOc1cccc(C2Nc3ccccc3NC3=C2C(=O)CC(c2ccc(OC)cc2)C3)c1 (stereo unspecified) | 64%
CSc1ccc(C2Nc3ccccc3NC3=C2C(=O)CC(c2ccccc2)C3)cc1 (stereo unspecified) | 65%
COc1ccc(C2CC(=O)C3=C(C2)Nc2ccccc2NC3c2cccc(C(F)(F)F)c2)cc1OC (stereo unspecified) | 65%
